This is an account of results in the NIST ThermoML archive (doi:10.1016/j.jct.2014.07.023).

SMILES strings stand for the structures. Several values for one entry are separate records, joined by “and”; a condition that tells them apart may be missing. Identical values can stand only once. Numbers after ± are expanded uncertainties.

Data set [1] is described as follows: molar heat capacity at constant pressure. The settings on record: 101.33 kPa, Liquid, Small sample (50 mg) DSC.
A short description of data set [2]: molar heat capacity at constant pressure; xn = mol fraction of the nth substance listed. The settings on record: 100 kPa, Liquid, Small sample (50 mg) DSC, x2 = 0.

Consider `CCC(O)CO` (stereo not drawn) [1,2-butanediol], for which the “molar heat capacity at constant pressure” value in data set [1] (293.15 K) is 228.1 ± 9.6 J/K/mol; in data set [1] (298.15 K) it was 230.82 ± 9.8 J/K/mol and 230.8 ± 9.8 J/K/mol; in data set [1] (303.15 K), 233.5 ± 9.9 J/K/mol; in data set [1] (308.15 K), 236.21 ± 10 J/K/mol; in data set [1] (313.15 K) it was 238.91 ± 10 J/K/mol; in data set [1] (318.15 K), 241.52 ± 10 J/K/mol. Further, in data set [1] (323.15 K), the “molar heat capacity at constant pressure” value is on record as 244.23 ± 10 J/K/mol.
Consider `CC(O)CCO` (stereo not drawn) [1,3-butanediol], for which the “molar heat capacity at constant pressure” value in data set [1] (293.15 K) is 215.84 ± 9.2 J/K/mol; in data set [1] (298.15 K) it was 218.89 ± 9.3 J/K/mol and 218.9 ± 9.3 J/K/mol; in data set [1] (303.15 K) it was 222.06 ± 9.5 J/K/mol; in data set [1] (308.15 K) it was 225.21 ± 9.6 J/K/mol; in data set [1] (313.15 K), 228.37 ± 9.7 J/K/mol; in data set [1] (318.15 K), 231.61 ± 9.8 J/K/mol. The “molar heat capacity at constant pressure” value in data set [1] (323.15 K) worked out at 234.86 ± 10 J/K/mol.
Consider `OCCCCO` [1,4-butanediol], for which the “molar heat capacity at constant pressure” value in data set [1] (293.15 K) is 201.15 ± 8.6 J/K/mol; in data set [1] (298.15 K), 203.79 ± 8.7 J/K/mol and 203.76 ± 8.7 J/K/mol; in data set [1] (303.15 K), 206.56 ± 8.7 J/K/mol; in data set [1] (308.15 K) it was 209.44 ± 8.9 J/K/mol; in data set [1] (313.15 K), 212.33 ± 9 J/K/mol; in data set [1] (318.15 K) it was 215.39 ± 9.1 J/K/mol. In addition, the “molar heat capacity at constant pressure” value in data set [1] (323.15 K) stood at 218.54 ± 9.3 J/K/mol.
Consider `CC(O)C(C)O` (stereo not drawn) [2,3-butanediol], for which the “molar heat capacity at constant pressure” value in data set [1] (293.15 K) was 233.95 ± 9.9 J/K/mol; in data set [1] (298.15 K), 236.66 ± 10 J/K/mol and 236.63 ± 10 J/K/mol; in data set [1] (303.15 K), 239.36 ± 10 J/K/mol; in data set [1] (308.15 K) it was 242.07 ± 10 J/K/mol; in data set [1] (313.15 K) it was 244.77 ± 10 J/K/mol; in data set [1] (318.15 K) it was 247.47 ± 11 J/K/mol. In addition, the “molar heat capacity at constant pressure” value in data set [1] (323.15 K) worked out at 250.18 ± 11 J/K/mol.
For `CO` [methanol], the “molar heat capacity at constant pressure” value in data set [1] (293.15 K) is 80.46 ± 3.4 J/K/mol; in data set [1] (298.15 K), 81.38 ± 3.5 J/K/mol and 81.39 ± 3.5 J/K/mol; in data set [1] (303.15 K), 82.38 ± 3.5 J/K/mol; in data set [1] (308.15 K) it was 83.44 ± 3.5 J/K/mol; in data set [1] (313.15 K), 84.56 ± 3.6 J/K/mol; in data set [1] (318.15 K), 85.78 ± 3.7 J/K/mol. Further, in data set [1] (323.15 K), the “molar heat capacity at constant pressure” value is 87.03 ± 3.7 J/K/mol.
Turning to `CO` [methanol] + CC(O)C(C)O, the “molar heat capacity at constant pressure” value in data set [2] (293.15 K) was 80.46 ± 3.4 J/K/mol; in data set [2] (298.15 K) it was 81.39 ± 3.5 J/K/mol; in data set [2] (303.15 K) it was 82.38 ± 3.5 J/K/mol; in data set [2] (308.15 K), 83.44 ± 3.5 J/K/mol; in data set [2] (313.15 K), 84.56 ± 3.6 J/K/mol; in data set [2] (318.15 K), 85.78 ± 3.7 J/K/mol. Moreover, the “molar heat capacity at constant pressure” value in data set [2] (323.15 K) amounted to 87.03 ± 3.7 J/K/mol.
For `CO` [methanol] + CC(O)CCO, the “molar heat capacity at constant pressure” value in data set [2] (293.15 K) amounted to 80.46 ± 3.4 J/K/mol; in data set [2] (298.15 K), 81.39 ± 3.5 J/K/mol; in data set [2] (303.15 K), 82.38 ± 3.5 J/K/mol; in data set [2] (308.15 K) it was 83.44 ± 3.5 J/K/mol; in data set [2] (313.15 K), 84.56 ± 3.6 J/K/mol; in data set [2] (318.15 K) it was 85.78 ± 3.7 J/K/mol. In data set [2] (323.15 K), the “molar heat capacity at constant pressure” value was determined as 87.03 ± 3.7 J/K/mol.
For the compound `CO` [methanol] + CCC(O)CO, the “molar heat capacity at constant pressure” value turned out to be 80.46 ± 3.4 J/K/mol in data set [2] (293.15 K); 81.39 ± 3.5 J/K/mol in data set [2] (298.15 K); 82.38 ± 3.5 J/K/mol in data set [2] (303.15 K); 83.44 ± 3.5 J/K/mol in data set [2] (308.15 K); 84.56 ± 3.6 J/K/mol in data set [2] (313.15 K); 85.78 ± 3.7 J/K/mol in data set [2] (318.15 K). The “molar heat capacity at constant pressure” value in data set [2] (323.15 K) came to 87.03 ± 3.7 J/K/mol.
`CO` [methanol] + OCCCCO: the “molar heat capacity at constant pressure” value in data set [2] (293.15 K) stood at 80.46 ± 3.4 J/K/mol; in data set [2] (298.15 K) it was 81.39 ± 3.5 J/K/mol; in data set [2] (303.15 K) it was 82.38 ± 3.5 J/K/mol; in data set [2] (308.15 K) it was 83.44 ± 3.5 J/K/mol; in data set [2] (313.15 K) it was 84.56 ± 3.6 J/K/mol; in data set [2] (318.15 K), 85.78 ± 3.7 J/K/mol. In addition, the “molar heat capacity at constant pressure” value in data set [2] (323.15 K) stood at 87.03 ± 3.7 J/K/mol.
